In the oligonucleotide strings, read from the 5' end, every base follows the letter of its sugar. An asterisk marks phosphorothioate; unmarked linkages are phosphodiester. Other units and linkages are bracketed, terminal groups are in braces. A string of capitals states the bases alone. e = 2'-O-(2-methoxyethyl) (MOE); [5mC] = 5-methylcytosine; d = 2'-deoxy (DNA)
Test system: human Factor 7 mRNA
Assay: Inhibition of human Factor 7 mRNA by 2-10-2 MOE shortmers in HepB3 cells, electroporation, 1,000 nM
Type: cell-based
Settings: electroporation, 1,000 nM oligonucleotide, approximately 24 hours, relative to untreated control cells
From the text: Short antisense oligonucleotides (shortmers) were designed to target a Factor 7 nucleic acid. The shortmers in Table 17 were designed as 2-10-2 MOE gapmers. The gapmers are 14 nucleotides in length, wherein the central gap segment is comprised of 10 2′-deoxynucleotides and is flanked on both sides (in the 5′ and 3′ directions) by wings comprising 2 nucleotides each. Each nucleotide in the 5′ wing segment and each nucleotide in the 3′ wing segment has a 2′-MOE modification. The internucleoside linkages throughout each gapmer are phosphorothioate (P═S) linkages. All cytidine residues throughout each gapmer are 5-methylcytidines.
Shortmers were evaluated for their ability to reduce human Factor 7 mRNA in HepB3 cells and compared with one 5-10-5 chimeric oligonucleotide from Table 16, ISIS 407939. HepB3 cells at a density of 20,000 cells per well in a 96-well plate were transfected using electroporation with 1,000 nM of antisense oligonucleotide. After a treatment period of approximately 24 hours, RNA was isolated from the cells and Factor 7 mRNA levels were measured by real-time RT-PCR, as described herein. Factor 7 mRNA levels were adjusted according to total RNA content as measured by RIBOGREEN®. Results are presented in Table 17 as percent inhibition of Factor 7 mRNA, relative to untreated control cells. ISIS 407939 is the first oligonucleotide in […] to which the shortmers were compared, and is marked by an asterisk (*).

| Substance | % inhibition of human Factor 7 mRNA |
| --- | --- |
| 435488 (antisense e[5mC]*eA*dG*dT*d[5mC]*d[5mC]*dT*dG*dG*dG*dT*d[5mC]*eA*eT) [compound 435488] | 17% |
| 435489 (antisense e[5mC]*eT*dG*dG*dT*dG*dT*dA*d[5mC]*dA*d[5mC]*d[5mC]*e[5mC]*e[5mC]) [compound 435489] | 72% |
| 435490 (antisense e[5mC]*e[5mC]*dT*dG*dG*dT*dG*dT*dA*d[5mC]*dA*d[5mC]*e[5mC]*e[5mC]) [compound 435490] | 49% |
| 435491 (antisense e[5mC]*e[5mC]*d[5mC]*dT*dG*dG*dT*dG*dT*dA*d[5mC]*dA*e[5mC]*e[5mC]) [compound 435491] | 61% |
| 435492 (antisense eA*e[5mC]*d[5mC]*d[5mC]*dT*dG*dG*dT*dG*dT*dA*d[5mC]*eA*e[5mC]) [compound 435492] | 45% |
| 435493 (antisense eG*eA*d[5mC]*d[5mC]*d[5mC]*dT*dG*dG*dT*dG*dT*dA*e[5mC]*eA) [compound 435493] | 58% |
| 435494 (antisense eA*eG*dA*d[5mC]*d[5mC]*d[5mC]*dT*dG*dG*dT*dG*dT*eA*e[5mC]) [compound 435494] | 47% |
| 435495 (antisense eG*eA*dG*dA*d[5mC]*d[5mC]*d[5mC]*dT*dG*dG*dT*dG*eT*eA) [compound 435495] | 27% |
| 435496 (antisense eG*eG*dA*dG*dA*d[5mC]*d[5mC]*d[5mC]*dT*dG*dG*dT*eG*eT) [compound 435496] | 47% |
| 435497 (antisense eG*eG*dG*dA*dG*dA*d[5mC]*d[5mC]*d[5mC]*dT*dG*dG*eT*eG) [compound 435497] | 27% |
| 435498 (antisense eT*eG*dG*dG*dA*dG*dA*d[5mC]*d[5mC]*d[5mC]*dT*dG*eG*eT) [compound 435498] | 37% |
| 435499 (antisense e[5mC]*eT*dG*dG*dG*dA*dG*dA*d[5mC]*d[5mC]*d[5mC]*dT*eG*eG) [compound 435499] | 59% |
| 435500 (antisense eA*e[5mC]*dT*dG*dG*dG*dA*dG*dA*d[5mC]*d[5mC]*d[5mC]*eT*eG) [compound 435500] | 49% |
| 435501 (antisense eT*eA*d[5mC]*dT*dG*dG*dG*dA*dG*dA*d[5mC]*d[5mC]*e[5mC]*eT) [compound 435501] | 51% |
| 435502 (antisense eG*eT*dA*d[5mC]*dT*dG*dG*dG*dA*dG*dA*d[5mC]*e[5mC]*e[5mC]) [compound 435502] | 69% |
| 435503 (antisense eT*eG*dT*dA*d[5mC]*dT*dG*dG*dG*dA*dG*dA*e[5mC]*e[5mC]) [compound 435503] | 17% |
| 435504 (antisense eA*eT*dG*dT*dA*d[5mC]*dT*dG*dG*dG*dA*dG*eA*e[5mC]) [compound 435504] | 8% |
| 435634 (antisense eT*eG*dA*dA*dA*dT*d[5mC]*dT*d[5mC]*dT*dG*d[5mC]*eA*eG) [compound 435634] | 5% |
| 435635 (antisense e[5mC]*eA*dT*dG*dA*dT*dG*dA*dA*dA*dT*d[5mC]*eT*e[5mC]) [compound 435635] | 0% |
| 435636 (antisense eG*eA*dG*dA*d[5mC]*d[5mC]*dA*dT*dG*dA*dT*dG*eA*eA) [compound 435636] | 13% |
| 435637 (antisense eT*eG*dA*dA*dG*d[5mC]*d[5mC]*d[5mC]*dA*dA*dG*d[5mC]*eA*eG) [compound 435637] | 11% |

| Substance | % inhibition of human Factor 7 mRNA |
| --- | --- |
| 435638 (antisense eA*eG*d[5mC]*d[5mC]*d[5mC]*dT*dG*dA*dA*dG*d[5mC]*d[5mC]*e[5mC]*eA) [compound 435638] | 55% |
| 435639 (antisense eT*e[5mC]*d[5mC]*dA*dG*dA*dA*d[5mC]*dA*dG*d[5mC]*dT*eT*e[5mC]) [compound 435639] | 31% |
| 435640 (antisense eT*eG*dT*dA*dA*dG*dA*dA*dA*dT*d[5mC]*d[5mC]*eA*eG) [compound 435640] | 2% |
| 435641 (antisense eG*eG*dT*d[5mC]*d[5mC]*d[5mC]*d[5mC]*dA*dT*d[5mC]*dA*d[5mC]*eT*eG) [compound 435641] | 51% |
| 435642 (antisense eA*e[5mC]*dA*d[5mC]*dT*dG*dG*dT*d[5mC]*d[5mC]*d[5mC]*d[5mC]*eA*eT) [compound 435642] | 60% |
| 435643 (antisense e[5mC]*eT*dT*dG*d[5mC]*dA*dG*dG*dA*dG*d[5mC]*d[5mC]*e[5mC]*e[5mC]) [compound 435643] | 51% |
| 435644 (antisense eT*eG*dG*dT*d[5mC]*d[5mC]*dT*dT*dG*d[5mC]*dA*dG*eG*eA) [compound 435644] | 30% |
| 435645 (antisense eG*eG*dA*dG*d[5mC]*dT*dG*dG*dT*d[5mC]*d[5mC]*dT*eT*eG) [compound 435645] | 44% |
| 435646 (antisense eT*eA*dG*dG*dA*d[5mC]*dT*dG*dG*dA*dG*d[5mC]*eT*eG) [compound 435646] | 13% |
| 435647 (antisense eA*eG*dA*dT*dA*dT*dA*dG*dG*dA*d[5mC]*dT*eG*eG) [compound 435647] | 0% |
| 435648 (antisense eG*eA*dA*dG*d[5mC]*dA*dG*dA*dT*dA*dT*dA*eG*eG) [compound 435648] | 0% |
| 435649 (antisense eA*eG*dG*d[5mC]*dA*dG*dA*dA*dG*d[5mC]*dA*dG*eA*eT) [compound 435649] | 21% |
| 435650 (antisense e[5mC]*e[5mC]*dG*dG*d[5mC]*d[5mC]*d[5mC]*dT*d[5mC]*dG*dA*dA*eG*eG) [compound 435650] | 6% |
| 435651 (antisense eA*e[5mC]*dA*dG*dT*dT*d[5mC]*d[5mC]*dG*dG*d[5mC]*d[5mC]*e[5mC]*eT) [compound 435651] | 71% |
| 435652 (antisense e[5mC]*eT*dG*dG*dT*d[5mC]*dA*dT*d[5mC]*d[5mC]*dT*dT*eG*eT) [compound 435652] | 48% |
| 435653 (antisense eA*eT*d[5mC]*dA*dG*d[5mC]*dT*dG*dG*dT*d[5mC]*dA*eT*e[5mC]) [compound 435653] | 32% |
| 435654 (antisense eG*e[5mC]*d[5mC]*dG*dT*dT*d[5mC]*dT*d[5mC]*dG*dT*dT*e[5mC]*eA) [compound 435654] | 71% |
| 435655 (antisense eA*e[5mC]*dA*dG*d[5mC]*d[5mC]*dG*d[5mC]*d[5mC]*dG*dT*dT*e[5mC]*eT) [compound 435655] | 49% |
| 435656 (antisense eA*e[5mC]*dT*dG*d[5mC]*dT*d[5mC]*dA*d[5mC]*dA*dG*d[5mC]*e[5mC]*eG) [compound 435656] | 58% |
| 435657 (antisense eG*e[5mC]*dA*dG*dT*dA*d[5mC]*dT*dG*d[5mC]*dT*d[5mC]*eA*e[5mC]) [compound 435657] | 69% |
